{"source": "paper PMC7806714", "about": "“Statins for the prevention of proliferative vitreoretinopathy: cellular responses in cultured cells and clinical statin concentrations in the vitreous” (Scientific Reports, 2021)", "key": {"ARPE-19 cells [1]": {"test_system": "ARPE-19 cells", "experiment": "LDH release assay (cell membrane integrity)", "type": "cell-based, human", "description": "(§1) Cell viability was assessed by determining the amount of LDH enzyme from culture media using a commercial kit (Promega Corporation, USA) according to the manufacturer’s protocol. This assay provides information about the integrity of the plasma membranes of the cells (high LDH levels meaning cell damage). In addition, the cell viability was examined with MTT assay, as described previously. In viable cells, the mitochondrial succinate dehydrogenase enzyme can metabolize the MTT dye into formazan that absorbs light at the 550 nm wavelength."}, "MTT cell viability assay": {"experiment": "MTT cell viability assay", "type": "cell-based, human", "conditions": "human, ARPE-19 cells; dissolved in DMSO; read-out: Cell viability (MTT) compared to DMSO control", "description": "as §1"}, "ARPE-19 cells [2]": {"test_system": "ARPE-19 cells", "experiment": "MTT cell viability assay", "type": "cell-based, human", "description": "as §1"}, "[3]": {"conditions": "plasma, cited from earlier work"}, "[4]": {"experiment": "UPLC-MS/MS statin and metabolite concentrations in vitreous of vitrectomy patients on oral statins", "type": "in vivo, human", "description": "The study was conducted according to the tenets of the Declaration of Helsinki, and was approved by the Institutional Review Board and Ethical committee of Helsinki University Central Hospital. Twenty patients were enrolled; fifteen with per oral statin treatment and five controls. Signed informed consent was obtained from each participant prior to the vitreous sampling. Confidentiality of the patient records was maintained when the clinical data were entered into a computer-based standardized data entry for analysis. Sixteen patients were being operated due to PDR; of these, five patients had also Tractional Retinal Detachment (TRD); two patients were operated due to RRD, one due to age-related epiretinal fibrosis (pucker), and one due to a macular hole (Supplementary Table S2). […] All vitrectomies were performed by the recruiting vitreoretinal surgeon (SL). […] The samples were collected by manual aspiration into a syringe via the vitrectomy with the cutting function activated. Sample aliquots were transferred into sterile 1.5 mL microcentrifuge tubes (Freemont, CA, USA) and immediately frozen and stored at − 70 °C until laboratory analysis. […] All reference compounds and internal standards were purchased from Toronto Research Chemicals (Toronto, Canada). Samples (100 µl) were divided into two aliquots and kept at − 80 °C prior to analysis. […] Homogenizer blocks were pre-cooled by placing them at − 20 °C. […] Supernatants (120 µl) were pipetted into analytical vials and the concentrations of the statins were measured with Ultra-high Pressure Liquid Chromatography—tandem Mass Spectrometry (UPLC-MS/MS) technique. The same pre-treatment protocol was used to prepare calibration curves and quality control samples but homogenized and filtered porcine vitreous were used as a matrix instead of human vitreous. A minimum of six calibration curve concentrations was used for quantitation of the compounds. Two parallel calibration curve sets included all eleven analytes and four deuterated internal standards. Three quality control samples in three parallel sets were used to validate the method. The linear range varied from approximately 0.004 to 10 ng/mL depending on the analyte. Limit of quantitation was set to the smallest calibration curve point of each drug. Each sample was analysed twice and the average of these values was designated as the concentration of the sample. […] For rosuvastatin, two metabolites were analysed: rosuvastatin lactone and N-desmethyl rosuvastatin lactone. Rosuvastatin D6 was used as an internal standard. The parent drug, its metabolites and internal standard were analysed from the same sample in each case. Liquid chromatography separation was carried out using a Waters Acquity UPLC instrument (Waters, MA, USA) coupled with Waters HSS T3 C18 (2.1 × 100 mm, 1.8 µm) column at 40 °C. The mobile phase consisted of 0.1% formic acid in ultrapure water (A) and 100% of LC–MS grade acetonitrile (B). […] The flow rate was set to 0.3 mL/min and injection volume 1.5 µl. After every three samples, a solvent blank was run to control for any carry over. Mass spectrometry measurements were carried out using a Waters Xevo Triple Quadruple mass spectrometer (TQ-S) equipped with an ESI source. […] The source parameters were as follows: Capillary voltage 2.8 kV, source temperature 150 °C and desolvation temperature 500 °C. Nitrogen (Aga, Helsinki, Finland) was used as a desolvation gas (800 l/h), a cone gas (150 l/h) and a nebulizer gas (7 bar). Argon (Aga, Helsinki, Finland) was used as a collision gas (0.15 mL/min). The Multiple Reaction Monitoring (MRM) mode was used for quantification. Precursor and fragment ions, as well as other optimized parameters are listed in Supplementary Table S3."}, "IL-6": {"test_system": "IL-6", "experiment": "ELISA of LPS-induced IL-6 release from ARPE-19 cells"}, "MCP-1": {"test_system": "MCP-1", "experiment": "ELISA of LPS-induced MCP-1 release from ARPE-19 cells"}, "IL-8": {"test_system": "IL-8", "experiment": "ELISA of LPS-induced IL-8 release from ARPE-19 cells", "conditions": "5 µM, 24 h prior to LPS"}, "[5]": {"conditions": "10 mg/d single oral dose, n=12, China, ref [30]"}, "[6]": {"conditions": "10 mg/d single oral dose, n=18, Germany, ref [31]"}, "[7]": {"conditions": "20 mg/d single oral dose, n=6, UK, ref [32]"}, "[8]": {"conditions": "20 mg/d single oral dose, n=12, Chinese, ref [30]"}, "[9]": {"conditions": "oral 20 mg/d, patients' vitreous"}, "[10]": {"conditions": "48 h exposure prior to LPS, 1.5, 5, 10 µM tested"}}, "note": "Where two headings read alike, the source gives them in different places.", "data": [{"smiles": "CC(C)c1nc(N(C)S(C)(=O)=O)nc(-c2ccc(F)cc2)c1/C=C/[C@@H](O)C[C@@H](O)CC(=O)O", "note": "[Rosuvastatin]", "values": [{"measurement": "LDH levels / cell membrane integrity", "setting": "ARPE-19 cells [1]; 24 h exposure, with LPS, dissolved in DMSO", "value": "more damage to the cell membrane"}, {"measurement": "LDH levels / cell membrane integrity", "setting": "ARPE-19 cells [1]; 24 h exposure, without LPS, dissolved in DMSO", "value": "protected the integrity of the cell membrane"}, {"measurement": "LDH levels / cell membrane integrity", "setting": "ARPE-19 cells [1]; 48 h exposure, with LPS, dissolved in DMSO", "value": "protect cells from LPS-induced cell membrane rupturing"}, {"measurement": "LDH levels / cell membrane integrity", "setting": "ARPE-19 cells [1]; 48 h exposure, dissolved in DMSO", "value": "acute toxic effects on the cell membrane"}, {"measurement": "LDH levels / cell membrane integrity", "setting": "ARPE-19 cells [1]; dissolved in water, 48 h, with LPS", "value": "interfered with the cell membrane integrity"}, {"measurement": "LDH levels", "setting": "ARPE-19 cells [1]; dissolved in water, within 24 h, irrespective of LPS", "value": "did not cause any changes in the LDH levels"}, {"measurement": "viability", "setting": "MTT cell viability assay", "value": 88, "unit": "%"}, {"measurement": "Cellular toxicity in MTT test", "setting": "ARPE-19 cells [2]; dissolved in DMSO, 24 h or 48 h, with or without LPS", "value": "well tolerated"}, {"measurement": "Cell viability in MTT assay", "setting": "ARPE-19 cells [2]; dissolved in water", "value": "did not compromise cell viability"}, {"measurement": "AUC0−∞", "setting": "[3]; [5]", "value": 103, "unit": "ng·h/mL"}, {"measurement": "Cmax", "setting": "[3]; [5]", "value": 10.8, "unit": "ng/mL"}, {"measurement": "AUC0−∞", "setting": "[3]; [6]", "value": 48.4, "unit": "ng·h/mL"}, {"measurement": "Cmax", "setting": "[3]; [6]", "value": 4.5, "unit": "ng/mL"}, {"measurement": "AUC0−∞", "setting": "[3]; [7]", "value": 63.1, "unit": "ng·h/mL"}, {"measurement": "Cmax", "setting": "[3]; [7]", "value": 6.1, "unit": "ng/mL"}, {"measurement": "AUC0−∞", "setting": "[3]; [8]", "value": 177, "unit": "ng·h/mL"}, {"measurement": "Cmax", "setting": "[3]; [8]", "value": 19.2, "unit": "ng/mL"}, {"measurement": "vitreous concentration range", "setting": "[4]; 10–20 mg daily, oral", "value": "52 to 316", "unit": "pg/mL"}, {"measurement": "Measured Cv Average", "setting": "[4]; oral 10 mg/d, patients' vitreous", "value": 0.055, "unit": "ng/mL"}, {"measurement": "Measured Cv Range (lower)", "setting": "[4]; [9]", "value": 0.052, "unit": "ng/mL"}, {"measurement": "Measured Cv Range (upper)", "setting": "[4]; [9]", "value": 0.316, "unit": "ng/mL"}, {"measurement": "Concentration in vitreous sample", "setting": "[4]; patient 359, Pucker, diabetes, oral rosuvastatin 20 mg", "value": 0.056, "unit": "ng/mL"}, {"measurement": "Concentration in vitreous sample", "setting": "[4]; patient 371, PDR, dose 0* (control without reported statin treatment)", "value": 0.241, "unit": "ng/mL"}, {"measurement": "Concentration in vitreous sample", "setting": "[4]; patient 383, PDR, oral rosuvastatin 10 mg", "value": 0.055, "unit": "ng/mL"}, {"measurement": "Concentration in vitreous sample", "setting": "[4]; patient 397, PDR, oral rosuvastatin 20 mg", "value": 0.168, "unit": "ng/mL"}, {"measurement": "Concentration in vitreous sample", "setting": "[4]; patient 412, PDR, oral rosuvastatin 20 mg", "value": 0.316, "unit": "ng/mL"}, {"measurement": "Concentration in vitreous sample", "setting": "[4]; patient 428, MH, diabetes, not DR, oral rosuvastatin 20 mg", "value": 0.052, "unit": "ng/mL"}, {"measurement": "LPS-induced release of IL-6", "setting": "IL-6; 5 µM, 24 h prior to LPS (rosuvastatin: DMSO and water)", "value": "reduced"}, {"measurement": "LPS-induced release of IL-6", "setting": "IL-6; 10 µM, 24 h prior to LPS (rosuvastatin: DMSO and water)", "value": "reduced"}, {"measurement": "LPS-induced release of IL-6", "setting": "IL-6; [10]", "value": "decreasing trends"}, {"measurement": "LPS-induced release of MCP-1", "setting": "MCP-1; 5 µM, 24 h prior to LPS", "value": "decreased"}, {"measurement": "LPS-induced release of MCP-1", "setting": "MCP-1; [10]", "value": "decreasing trends"}, {"measurement": "LPS-induced release of IL-8", "setting": "IL-8", "value": "reduced"}]}]}
